The numbers were not newly measured in patent US6268341A, “Expression of urokinase plasminogen activator inhibitors” (Chiron Corporation, priority 1998, dated 2001), which cites them from elsewhere.

Where no end group is shown, it is not given here. Fuc = fucose (fucosylation)

For data set [1], the system named is osteosarcoma cell line, SaOS-2. To be noted: Rabbani et al.
A further data set has as its target uPAR (Homo sapiens, UniProt Q03405). The following applies: Appella et al., J Biol Chem 1987.

Chain of uPAR (Q03405 23-335): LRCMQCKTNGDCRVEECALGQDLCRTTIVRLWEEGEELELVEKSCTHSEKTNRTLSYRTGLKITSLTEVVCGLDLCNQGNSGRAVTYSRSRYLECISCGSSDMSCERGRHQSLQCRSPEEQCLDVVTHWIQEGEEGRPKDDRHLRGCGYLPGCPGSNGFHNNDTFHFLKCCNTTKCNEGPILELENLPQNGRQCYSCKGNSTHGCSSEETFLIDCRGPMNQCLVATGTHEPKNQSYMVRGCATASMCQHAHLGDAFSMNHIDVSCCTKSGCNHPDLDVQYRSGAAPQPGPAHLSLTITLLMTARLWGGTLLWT

Turning to “fucosylated EGF-like domain: fucosylated EGF-like domain (uPA4-43, produced by cleavage from prouPA) (LHQVPSNCDCLNGGT(Fuc)CVSNKYFSNIHWCNCPKKFGGQHCE; cysteine pairing not given here; UniProt P00749 24-63, looked up, fragment)”, the mitogenic activity entry in data set [1] is “mitogenic”.

As for “uPA12-32: critical receptor-binding domain alone, residues 12-32 of uPA (DCLNGGTCVSNKYFSNIHWCN; UniProt P00749 32-52, looked up, fragment)”, the “affinity relative to intact ATF (fold less)” value with uPAR was “about 100 fold”.
